Paper PMC9774939, “Optimization of Pyrazole Compounds as Antibiotic Adjuvants Active against Colistin- and Carbapenem-Resistant Acinetobacter baumannii” (Antibiotics, 2022)
In brackets after ≈: the same amount, converted by molar mass.

Experiments:
[1] = system: Escherichia coli CCUG^T; assay: MAC determination in the presence of subinhibitory colistin; assay type: cell-based; set-up: key to MAC Eco: -: No synergistic activity; conditions: for MAC Eco: in the presence of 0.5 × MIC colistin; for MIC/MAC Ratio Eco: minimal ratio of MIC of compound alone to MAC with 0.5 × MIC colistin
Procedure: (§1) The minimum inhibitory concentration (MIC) and minimum bactericidal concentration (MBC) of the compounds were determined in triplicate using Mueller–Hinton broth and a bacterial inoculum of 5 × 10^5 CFU/mL, as recommended by the CLSI [26]. The minimum antibacterial concentration (MAC) of the compounds was determined in the presence of a fixed and subinhibitory concentration of colistin (as mentioned above).

[2] = system: Klebsiella pneumoniae ATCC 13833; assay: MAC determination in the presence of subinhibitory colistin; assay type: cell-based; set-up: key to MAC Kpn: -: No synergistic activity; conditions: for MAC Kpn: in the presence of 0.5 × MIC colistin; for MIC/MAC Ratio Kpn: minimal ratio of MIC of compound alone to MAC with 0.5 × MIC colistin
Procedure: as §1

[3] = system: Acinetobacter baumannii ATCC 17978; assay: as above; assay type: cell-based; set-up: key to MAC Aba: -: No synergistic activity; conditions: for MAC Aba: in the presence of 0.5 × MIC colistin; for MIC/MAC Ratio Aba: minimal ratio of MIC of compound alone to MAC with 0.5 × MIC colistin
Procedure: as §1

[4] = system: eight reference strains, Gram-positive and Gram-negative; assay: Agar diffusion test, direct antibacterial activity; assay type: cell-based; conditions: for direct-acting antibacterial activity (agar diffusion): eight reference strains; for growth inhibition zone diameter: agar diffusion, on Gram-positive organisms
Procedure: Compounds 3–40, 42, 44–47, and 49 (Scheme 1, Scheme 2, Scheme 3, Scheme 4 and Scheme 5) were subjected to a detailed investigation of their direct and synergistic antibacterial activity and potential cytotoxicity by using several methods. The direct antibacterial activity of these compounds was determined using both agar diffusion and broth microdilution methods. The former was initially used to identify potentially active compounds and was tested on eight reference strains, with representatives of both Gram-positive and Gram-negative clinically relevant bacterial species or genera (Figure 4).
The compounds were provided as powders and dissolved in 100% DMSO at a final concentration of 50 mg/mL. When a compound was not soluble, DMSO was further added to lower the concentration to 25 mg/mL or, when necessary, 12.5 or 6.25 mg/mL, until the compound was completely solubilized. The primary screen used in the evaluation of the direct antibacterial activity through an agar diffusion test was implemented on a 8-channel, automated liquid-handling platform (PerkinElmer Janus Integrator, Waltham, Mass.), which was located under a custom-made class 1000 laminar flow cabinet (Faster, Cornaredo, Italy). Briefly, 1-well plates (Thermo Fisher Scientific, Waltham, Mass.), previously filled with Mueller–Hinton Agar medium, were inoculated with a suspension of the bacterium in a sterile 0.9% NaCl solution containing 1.5 × 10^8 CFU/mL, using a sterile swab. Indicator organisms included 4 Gram-positive (Bacillus subtilis ATCC 6633, Enterococcus faecalis ATCC 29212, Staphylococcus epidermidis ATCC 14990, and Streptococcus pyogenes ATCC 12344) and 4 Gram-negative (Escherichia coli CCUG^T, Klebsiella pneumoniae ATCC 13833, Pseudomonas aeruginosa ATCC 27853, and Acinetobacter baumannii ATCC 17978) strains, which were routinely propagated using Mueller–Hinton Agar plates. In total, 2 μL of each solution of compounds was dispensed on the plate surface (corresponding to 100, 50, 25, or 12.5 μg of compound according to its solubility). The controls included the solvent (100% DMSO), kanamycin, piperacillin, ceftazidime, vancomycin, and teicoplanin. The results were recorded as the diameter of the growth inhibition zone. The inhibition zones of the controls (max variation from expected diameter, ± 1 mm) were used as the validation criteria. The assays were performed at least in duplicate, and the position in which a single compound was spotted on the plate was randomly modified in any successive experiment.

[5] = system: bacterial reference strains; assay: Broth microdilution MIC, direct activity; assay type: cell-based
Procedure: as §1

[6] = system: Enterococcus faecalis; assay: Broth microdilution MIC; assay type: cell-based; conditions: compound alone
Procedure: as §1

[7] = system: Staphylococcus aureus; assay: Broth microdilution MIC; assay type: cell-based; conditions: compound alone
Procedure: as §1

[8] = system: Bacillus subtilis; assay: Broth microdilution MIC; assay type: cell-based; conditions: compound alone
Procedure: as §1

[9] = system: Streptococcus pyogenes; assay: Broth microdilution MIC; assay type: cell-based; conditions: compound alone
Procedure: as §1

| Structure (SMILES) | MAC Eco [1] | MIC/MAC Ratio Eco [1] | melting point | MAC Kpn [2] | MIC/MAC Ratio Kpn [2] | MAC Aba [3] | direct-acting antibacterial activity (agar diffusion) [4] | MIC [5] | MIC/MAC Ratio Aba [3] | growth inhibition zone diameter [4] | MIC [6] | MIC [7] | MIC [8] | MIC [9] |
| --- | --- | --- | --- | --- | --- | --- | --- | --- | --- | --- | --- | --- | --- | --- |
| CCOC(=O)[C@@H](NC(=O)c1cnn(-c2ccccc2)c1-n1cccc1)C(C)C [Compound 13, Ethyl (S)-3-Methyl-2-[[[1-phenyl-5-(1H-pyrrol-1-yl)-1H-pyrazol-4-yl]carbonyl]amino]butanoate] | 64 µg/mL | 8 | 75 to 78 °C | 32 µg/mL | 16 | - |  |  |  |  |  |  |  |  |
| O=C(O)CNC(=O)c1cnn(-c2ccccc2)c1-n1cccc1 [Compound 15, [[[1-Phenyl-5-(1H-pyrrol-1-yl)-1H-pyrazol-4-yl]carbonyl]amino]acetic Acid] |  |  | 191 to 194 °C |  |  |  | broad-spectrum, though moderate, direct-acting antibacterial activity | ≥ 512 µg/mL |  |  |  |  |  |  |
| C[C@H](NC(=O)c1cnn(-c2ccccc2)c1-n1cccc1)C(=O)O [Compound 16, (S)-2-[[[1-Phenyl-5-(1H-pyrrol-1-yl)-1H-pyrazol-4-yl]carbonyl]amino]propanoic Acid] |  |  | 142 to 145 °C |  |  |  | broad-spectrum, though moderate, direct-acting antibacterial activity | ≥ 512 µg/mL |  |  |  |  |  |  |
| CC(C)[C@H](NC(=O)c1cnn(-c2ccccc2)c1-n1cccc1)C(=O)O [Compound 17, (S)-3-Methyl-2-[[[1-phenyl-5-(1H-pyrrol-1-yl)-1H-pyrazol-4-yl]carbonyl]amino]butanoic Acid] |  |  | 150 to 152 °C |  |  |  | broad-spectrum, though moderate, direct-acting antibacterial activity | ≥ 512 µg/mL |  |  |  |  |  |  |
| C[C@H](NC(=O)CNC(=O)c1cnn(-c2ccccc2)c1-n1cccc1)C(=O)O [Compound 19, N-[N-[[1-Phenyl-5-(1H-pyrrol-1-yl)-1H-pyrazol-4-yl]carbonyl]glycyl]-L-alanine] |  |  | 80 to 84 °C |  |  |  | broad-spectrum, though moderate, direct-acting antibacterial activity | ≥ 512 µg/mL |  |  |  |  |  |  |
| CC(C)(C)OC(=O)Nc1c(C(=O)NCc2ccc(Br)cc2)cnn1-c1ccccc1 [Compound 20, N-(4-Bromobenzyl)-5-(tert-butoxycarbonylamino)-1-phenyl-1H-pyrazole-4-carboxamide] | - |  | 175 to 176 °C | 64 µg/mL | 8 | 64 µg/mL |  |  | 8 |  |  |  |  |  |
| CC(C)(C)OC(=O)Nc1c(C(=O)NCc2ccc(-c3ccc(OC(F)(F)F)cc3)cn2)cnn1-c1ccc([N+](=O)[O-])cc1 [Compound 22, 5-(tert-Butoxycarbonylamino)-1-(4-nitrophenyl)-N-[[5-(4-trifluoromethoxyphenyl)pyridin-2-yl]methyl]-1H-pyrazole-4-carboxamide] | - |  | 197 to 199 °C | 64 µg/mL | 8 | 64 µg/mL |  |  | 8 |  |  |  |  |  |
| Cc1c(C(=O)NC23CC4CC(CC(O)(C4)C2)C3)nn(-c2ccccc2)c1-n1cccc1 [Compound 27, N-(Adamantan-3-ol-1-yl)-4-methyl-1-phenyl-5-(1H-pyrrol-1-yl)-1H-pyrazole-3-carboxamide] | 32 µg/mL | 16 | 137 to 138 °C | 32 µg/mL | 16 | - |  |  |  |  |  |  |  |  |
| Cc1c(C(=O)N2CCN(C)CC2)nn(-c2ccc(Cl)cc2)c1-n1cccc1 [Compound 28, [1-(4-Chlorophenyl)-4-methyl-5-(1H-pyrrol-1-yl)-1H-pyrazol-3-yl](4-methylpiperazin-1-yl)methanone] | 64 µg/mL | 8 | 178 to 182 °C | 64 µg/mL | 8 | 64 µg/mL |  |  | 8 |  |  |  |  |  |
| Cc1c(C(=O)N(CCO)Cc2ccccc2)nn(-c2ccc(Cl)cc2)c1-n1cccc1 [Compound 31, N-Benzyl-1-(4-chlorophenyl)-N-(2-hydroxyethyl)-4-methyl-5-(1H-pyrrol-1-yl)-1H-pyrazole-3-carboxamide] | 32 µg/mL | 16 |  | 16 µg/mL | 32 | 32 µg/mL |  |  | 16 |  |  |  |  |  |
| Cc1c(C(=O)N[C@@H](Cc2ccccc2)C(=O)OC(C)(C)C)nn(-c2c(Cl)cc(Cl)cc2Cl)c1-n1c(C)ccc1C [Compound 39, tert-Butyl (S)-3-Phenyl-2-[[[4-methyl-1-(2,4,6-trichlorophenyl)-5-(2,5-dimethyl-1H-pyrrol-1-yl)-1H-pyrazol-3-yl]carbonyl]amino]propanoate] | - |  | 72 to 81 °C | - |  | 32 µg/mL |  |  | 16 |  |  |  |  |  |
| Cc1c(C(=O)Nc2ccc(C(=O)O)cc2)nn(-c2ccc(Cl)cc2)c1-n1cccc1 [Compound 40, 4-[[[1-(4-Chlorophenyl)-4-methyl-5-(1H-pyrrol-1-yl)-1H-pyrazol-3-yl]carbonyl]amino]benzoic Acid] |  |  | > 250 °C |  |  |  |  |  |  | up to 18 mm | 32 µg/mL (≈ 76 µM) | 32 µg/mL (≈ 76 µM) | 32 µg/mL (≈ 76 µM) | 16 µg/mL (≈ 38 µM) |
| Cc1c(C(=O)Nc2cccc(C(=O)O)c2)nn(-c2ccc(Cl)cc2)c1-n1cccc1 [Compound 42, 3-[[[1-(4-Chlorophenyl)-4-methyl-5-(1H-pyrrol-1-yl)-1H-pyrazol-3-yl]carbonyl]amino]benzoic Acid] |  |  | 248 to 250 °C |  |  |  | broad-spectrum, though moderate, direct-acting antibacterial activity | ≥ 512 µg/mL |  | up to 18 mm | 32 µg/mL (≈ 76 µM) | 32 µg/mL (≈ 76 µM) | 32 µg/mL (≈ 76 µM) | 16 µg/mL (≈ 38 µM) |
| Cc1c(C(=O)Nc2ccccc2C(=O)O)nn(-c2ccc(Cl)cc2)c1-n1cccc1 [Compound 44, 2-[[[1-(4-Chlorophenyl)-4-methyl-5-(1H-pyrrol-1-yl)-1H-pyrazol-3-yl]carbonyl]amino]benzoic Acid] |  |  | 270 to 272 °C |  |  |  |  |  |  | up to 18 mm | 32 µg/mL (≈ 76 µM) | 32 µg/mL (≈ 76 µM) | 32 µg/mL (≈ 76 µM) | 16 µg/mL (≈ 38 µM) |
| CCOC(=O)NS(=O)(=O)c1ccc(NC(=O)c2nn(-c3ccc(Cl)cc3)c(-n3cccc3)c2C)cc1 [Compound 47, Ethyl [[4-[1-(4-Chlorophenyl)-4-methyl-5-(1H-pyrrol-1-yl)-1H-pyrazole-3-carboxamido]phenyl]sulfonyl]carbamate] |  |  | 188 to 190 °C |  |  |  |  |  |  | up to 18 mm | 32 µg/mL (≈ 60.6 µM) | 32 µg/mL (≈ 60.6 µM) | 32 µg/mL (≈ 60.6 µM) | 16 µg/mL (≈ 30.3 µM) |
